Laboratory results published in US20220340629A1, “Myosin Derived Peptides and Related Compounds with Anticoagulant Activities” (THE SCRIPPS RESEARCH INSTITUTE, priority 0001, published 2022).
Non-standard residues stand in square brackets, D forms with d. Residues, ends and D or L forms follow the SMILES beside them. NMeF = CN[C@@H](Cc1ccccc1)C(=O)O; 3Pal = N[C@@H](Cc1cccnc1)C(=O)O; NMeN = CN[C@@H](CC(N)=O)C(=O)O; NMeS = CN[C@@H](CO)C(=O)O; Nle = CCCC[C@H](N)C(=O)O

How the values were obtained:
[1] = target: skeletal muscle myosin-supported prothrombin activation by factors Xa and Va (Homo sapiens, UniProt P00742); test: Assay 1A: prothrombin activation by factor Xa/factor Va/myosin in purified system; type: biochemical, human factors Xa and Va; rabbit skeletal muscle myosin; conditions: purified system; skeletal muscle myosin, factor Va 5 nM, factor Xa 0.2 nM, prothrombin 0.75 μM, 10 min; read-out: 1A (+myosin)
Sequence of skeletal muscle myosin-supported prothrombin activation by factors Xa and Va (Homo sapiens, UniProt P00742) (P00742 41-179): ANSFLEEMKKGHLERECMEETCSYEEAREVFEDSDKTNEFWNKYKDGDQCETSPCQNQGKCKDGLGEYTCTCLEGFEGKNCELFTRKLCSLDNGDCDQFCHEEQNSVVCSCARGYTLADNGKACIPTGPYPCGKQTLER
Sequence of skeletal muscle myosin-supported prothrombin activation by factors Xa and Va (Homo sapiens, UniProt P00742) (P00742 235-488): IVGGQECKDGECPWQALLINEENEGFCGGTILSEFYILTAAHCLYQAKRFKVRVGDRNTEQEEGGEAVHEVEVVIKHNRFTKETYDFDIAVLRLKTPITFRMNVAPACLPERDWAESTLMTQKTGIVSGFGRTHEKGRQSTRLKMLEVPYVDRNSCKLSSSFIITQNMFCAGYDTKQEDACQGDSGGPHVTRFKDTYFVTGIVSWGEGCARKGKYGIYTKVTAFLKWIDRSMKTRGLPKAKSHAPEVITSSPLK
Sequence of skeletal muscle myosin-supported prothrombin activation by factors Xa and Va (Homo sapiens, UniProt P00742) (P12259 29-737 partner): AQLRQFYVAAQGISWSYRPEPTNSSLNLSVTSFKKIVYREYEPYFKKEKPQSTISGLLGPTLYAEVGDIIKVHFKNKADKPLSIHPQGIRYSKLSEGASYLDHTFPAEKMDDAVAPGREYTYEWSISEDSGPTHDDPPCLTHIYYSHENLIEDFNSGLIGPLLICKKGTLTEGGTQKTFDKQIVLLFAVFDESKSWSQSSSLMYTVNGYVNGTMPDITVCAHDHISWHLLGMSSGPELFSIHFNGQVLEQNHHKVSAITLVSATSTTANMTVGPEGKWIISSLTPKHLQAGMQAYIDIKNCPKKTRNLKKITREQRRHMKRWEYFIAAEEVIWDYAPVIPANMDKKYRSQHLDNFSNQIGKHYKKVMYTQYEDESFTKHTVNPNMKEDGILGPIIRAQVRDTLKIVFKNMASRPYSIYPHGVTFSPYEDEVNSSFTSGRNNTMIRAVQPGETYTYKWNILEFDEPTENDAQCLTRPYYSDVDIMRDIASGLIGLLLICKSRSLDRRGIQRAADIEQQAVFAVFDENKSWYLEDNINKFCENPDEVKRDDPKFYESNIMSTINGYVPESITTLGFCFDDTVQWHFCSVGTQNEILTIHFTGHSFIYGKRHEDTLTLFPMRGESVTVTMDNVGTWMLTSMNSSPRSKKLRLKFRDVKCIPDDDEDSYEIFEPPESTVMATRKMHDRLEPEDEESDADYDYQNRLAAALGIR
Sequence of skeletal muscle myosin-supported prothrombin activation by factors Xa and Va (Homo sapiens, UniProt P00742) (P12259 1574-2224 partner): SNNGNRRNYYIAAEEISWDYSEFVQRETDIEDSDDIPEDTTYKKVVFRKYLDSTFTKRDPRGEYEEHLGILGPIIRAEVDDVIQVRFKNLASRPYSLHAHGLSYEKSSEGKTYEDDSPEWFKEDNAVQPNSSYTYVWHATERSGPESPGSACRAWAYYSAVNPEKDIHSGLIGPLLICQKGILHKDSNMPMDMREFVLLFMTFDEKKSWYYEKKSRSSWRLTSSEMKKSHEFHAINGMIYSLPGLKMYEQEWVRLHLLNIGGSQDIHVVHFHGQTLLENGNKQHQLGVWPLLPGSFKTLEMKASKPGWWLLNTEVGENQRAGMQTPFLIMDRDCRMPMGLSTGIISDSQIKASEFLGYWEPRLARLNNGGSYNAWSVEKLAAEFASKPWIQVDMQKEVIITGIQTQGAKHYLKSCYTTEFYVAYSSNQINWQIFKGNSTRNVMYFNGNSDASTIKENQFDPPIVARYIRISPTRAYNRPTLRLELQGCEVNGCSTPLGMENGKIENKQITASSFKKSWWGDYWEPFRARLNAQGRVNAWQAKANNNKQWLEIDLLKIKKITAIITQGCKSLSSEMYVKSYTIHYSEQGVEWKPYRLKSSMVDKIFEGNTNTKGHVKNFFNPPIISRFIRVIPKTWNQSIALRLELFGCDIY

[2] = system: thrombin generation in human platelet poor plasma with skeletal muscle myosin; test: Assay 2A: thrombin generation, recalcification of human platelet poor plasma + myosin; type: biochemical; conditions: human platelet poor plasma 30%, myosin 50 nM, CaCl2 10 mmol/L; read-out: 2A (recalcification +myosin)
Method: Activities of the various peptides and derivative compounds were also examined via assays using recalcification of human plasma. [One of] these assay format (2A) involves monitoring thrombin generation in platelet poor plasma (PPP). Specifically, pooled normal human platelet poor plasma (PPP) (obtained from George King Bio Medical Inc., Overland Park, Kans.) (30%) was incubated with skeletal muscle myosin at 50 nM in the presence of peptide in DMSO or DMSO alone for 5 min at 37° C. Then, fluorogenic thrombin substrate solution (Z-Gly-Gly-Arg-AMC) (I-1140) with CaCl2 (10 mmol/L final) alone was added to the reaction mixture (total 110 μl) to initiate coagulation. Thrombin generation was followed continuously for 25 min using SPECTRAmax GEMINI XS fluorometer (Molecular Devices, Sunnyvale, Calif.) with excitation and emission wavelengths set at 360 and 460 nm, respectively. The first derivative of fluorescence versus time was used to produce thrombin generation curves with the correction for substrate consumption and inner filter effect. For this assay 96 well plate (total 110 μL) or 384 well plates (total 30 μL) were used.
Activities obtained from Assay 2A (recalcification of human plasma in the presence of myosin) were used to rank the various peptides listed in Table 3. As noted above, this assay monitors recalcification of plasma to stimulate thrombin generation. In this assay, potency of the compounds was determined as the peptide concentration for 50% inhibition of thrombin generation, defined as “IC50”.

[3] = system: skeletal muscle myosin-supported prothrombin activation by factors Xa and Va; test: Assay 1A: prothrombin activation by factor Xa/factor Va/myosin in purified system; type: biochemical, human factors Xa and Va; rabbit skeletal muscle myosin; conditions: for IC50: dose-dependency assays, FIG. 2A, myosin 2 nM, read-out: IC50, inhibition of myosin-supported prothrombin activation; for inhibition of myosin-supported prothrombin activation at 5 μM: peptide 5 μM; for inhibition of myosin-supported prothrombin activation at 5 μM / inhibition of myosin-supported prothrombin activation at 100 μM: FIG. 1A; for inhibition of myosin-supported prothrombin activation at 100 μM: peptide 100 μM; for inhibition of myosin-supported prothrombin activation: dose-dependent studies, FIG. 4, TFP 0-100 μM, ELC peptides 0-300 μM
[4] = target: phospholipid-supported prothrombin activation by factors Xa and Va (Homo sapiens, UniProt P00742); test: Assay 1C: phospholipid vesicle (PC/PS 80%/20%)-supported prothrombin activation; type: biochemical
Sequence of phospholipid-supported prothrombin activation by factors Xa and Va (P00742 41-179 limits assumed): as the sequence (P00742 41-179) above
Sequence of phospholipid-supported prothrombin activation by factors Xa and Va (P00742 235-488 limits assumed): as the sequence (P00742 235-488) above

[5] = target: T1, prothrombin activation by factor Xa and factor Va (no myosin) (Homo sapiens, UniProt P00742); test: Assay 1B: prothrombin activation by factor Xa/factor Va, no myosin; type: biochemical; conditions: FIG. 4; peptide 0-300 μM
T1 construct: the same reaction mixture of factor Xa, factor Va and prothrombin
T1 sequence (P00742 41-179 limits assumed): as the sequence (P00742 41-179) above
T1 sequence (P00742 235-488 limits assumed): as the sequence (P00742 235-488) above

## CCCC[C@H](NC(=O)[C@H](Cc1c[nH]c2ccccc12)NC(=O)[C@@H]1CCCN1C(=O)[C@H](Cc1c[nH]c2ccccc12)NC(=O)[C@H](Cc1c[nH]cn1)NC(=O)[C@H](CCCCN)NC(=O)[C@@H](NC(=O)[C@H](CC(N)=O)NC(=O)[C@H](CCCC)NC(=O)[C@H](Cc1ccccc1)NC(=O)[C@H](CO)NC(=O)[C@H](CCCNC(=N)N)NC(=O)[C@@H](NC(=O)[C@H](CC(N)=O)NC(=O)[C@H](Cc1ccc(O)cc1)NC(=O)[C@H](CCC(N)=O)NC(=O)[C@@H](NC(=O)[C@H](CS)NC(=O)[C@H](Cc1cccnc1)NC(=O)[C@@H](NC(=O)[C@H](C)N)[C@@H](C)CC)[C@@H](C)CC)[C@@H](C)CC)C(C)C)C(=O)N[C@@H](CCCCN)C(N)=O [HC178] (H-AI[3Pal]CIQYNIRSF[Nle]NVKHWPW[Nle]K-NH2; N-terminus assumed)
[1]
  IC50: 1.7 µM
[2]
  IC50: 13 µM

## CCCC[C@H](NC(=O)[C@H](Cc1c[nH]c2ccccc12)NC(=O)[C@@H]1CCCN1C(=O)[C@H](Cc1c[nH]c2ccccc12)NC(=O)[C@H](Cc1c[nH]cn1)NC(=O)[C@H](CCCCN)NC(=O)[C@@H](NC(=O)[C@H](CC(N)=O)NC(=O)[C@H](CCCC)NC(=O)[C@H](Cc1ccccc1)NC(=O)[C@H](CO)NC(=O)[C@H](CCCNC(=N)N)NC(=O)[C@@H](NC(=O)[C@H](CC(N)=O)NC(=O)[C@H](Cc1ccc(O)cc1)NC(=O)[C@H](CCC(N)=O)NC(=O)[C@@H](NC(=O)[C@H](CO)NC(=O)[C@H](Cc1ccccc1)NC(=O)[C@@H](NC(=O)[C@H](C)N)[C@@H](C)CC)[C@@H](C)CC)[C@@H](C)CC)C(C)C)C(=O)N[C@@H](CCCCN)C(N)=O [HC188] (H-AIFSIQYNIRSF[Nle]NVKHWPW[Nle]K-NH2; N-terminus assumed)
[1]
  IC50: 0.59 µM
[2]
  IC50: 10 µM

## CCCC[C@H](NC(=O)[C@H](Cc1c[nH]c2ccccc12)NC(=O)[C@@H]1CCCN1C(=O)[C@H](Cc1c[nH]c2ccccc12)NC(=O)[C@H](Cc1c[nH]cn1)NC(=O)[C@H](CCCCN)NC(=O)[C@@H](NC(=O)[C@H](CC(N)=O)NC(=O)[C@H](CCCC)NC(=O)[C@H](Cc1ccccc1)NC(=O)[C@H](CO)NC(=O)[C@H](CCCNC(=N)N)NC(=O)[C@@H](NC(=O)[C@H](CC(N)=O)NC(=O)[C@H](Cc1ccc(O)cc1)NC(=O)[C@H](CCC(N)=O)NC(=O)[C@@H](NC(=O)[C@H](CO)N(C)C(=O)[C@H](Cc1ccccc1)NC(=O)[C@@H](NC(=O)[C@H](C)N)[C@@H](C)CC)[C@@H](C)CC)[C@@H](C)CC)C(C)C)C(=O)N[C@@H](CCCCN)C(N)=O [HC189] (H-AIF[NMeS]IQYNIRSF[Nle]NVKHWPW[Nle]K-NH2; N-terminus assumed)
[1]
  IC50: 1.5 µM
[2]
  IC50: 17 µM

## CCCC[C@H](NC(=O)[C@H](Cc1c[nH]c2ccccc12)NC(=O)[C@@H]1CCCN1C(=O)[C@H](Cc1c[nH]c2ccccc12)NC(=O)[C@H](Cc1c[nH]cn1)NC(=O)[C@H](CCCCN)NC(=O)[C@@H](NC(=O)[C@H](CC(N)=O)NC(=O)[C@H](CCCC)NC(=O)[C@H](Cc1ccccc1)N(C)C(=O)[C@H](CO)NC(=O)[C@H](CCCNC(=N)N)NC(=O)[C@@H](NC(=O)[C@H](CC(N)=O)NC(=O)[C@H](Cc1ccc(O)cc1)NC(=O)[C@H](CCC(N)=O)NC(=O)[C@@H](NC(=O)[C@H](CS)NC(=O)[C@H](Cc1ccccc1)NC(=O)[C@@H](NC(=O)[C@H](C)N)[C@@H](C)CC)[C@@H](C)CC)[C@@H](C)CC)C(C)C)C(=O)N[C@@H](CCCCN)C(N)=O [HC198] (H-AIFCIQYNIRS[NMeF][Nle]NVKHWPW[Nle]K-NH2; N-terminus assumed)
[1]
  IC50: 0.87 µM
[2]
  IC50: 16 µM

## CCCC[C@H](NC(=O)[C@H](Cc1c[nH]c2ccccc12)NC(=O)[C@@H]1CCCN1C(=O)[C@H](Cc1c[nH]c2ccccc12)NC(=O)[C@H](Cc1c[nH]cn1)NC(=O)[C@H](CCCCN)NC(=O)[C@@H](NC(=O)[C@H](CC(N)=O)N(C)C(=O)[C@H](CCCC)NC(=O)[C@H](Cc1ccccc1)NC(=O)[C@H](CO)NC(=O)[C@H](CCCNC(=N)N)NC(=O)[C@@H](NC(=O)[C@H](CC(N)=O)NC(=O)[C@H](Cc1ccc(O)cc1)NC(=O)[C@H](CCC(N)=O)NC(=O)[C@@H](NC(=O)[C@H](CS)NC(=O)[C@H](Cc1ccccc1)NC(=O)[C@@H](NC(=O)[C@H](C)N)[C@@H](C)CC)[C@@H](C)CC)[C@@H](C)CC)C(C)C)C(=O)N[C@@H](CCCCN)C(N)=O [HC199] (H-AIFCIQYNIRSF[Nle][NMeN]VKHWPW[Nle]K-NH2)
[1]
  IC50: 0.46 µM
[2]
  IC50: 5.8 to 10.2 µM

## CC[C@H](C)[C@H](NC(=O)[C@H](CC(C)C)NC(=O)[C@H](CCC(N)=O)NC(=O)[C@H](C)NC(=O)[C@H](CC(C)C)NC(=O)[C@H](CCCCN)NC(=O)[C@H](CC(=O)O)NC(=O)[C@H](CC(=O)O)NC(=O)[C@H](CCCNC(=N)N)NC(=O)[C@H](CCSC)NC(=O)[C@@H](N)CCC(=O)O)C(=O)N[C@H](C(=O)N[C@@H](CCCNC(=N)N)C(=O)N[C@H](C(=O)N[C@@H](CCC(N)=O)C(=O)N[C@@H](C)C(=O)N[C@@H](CCCNC(=N)N)C(=O)N[C@@H](CS)C(=O)N[C@@H](CCCNC(=N)N)C(=O)NCC(=O)N[C@@H](Cc1ccccc1)C(=O)N[C@@H](CC(C)C)C(=O)N[C@@H](C)C(=O)N[C@@H](CCCNC(=N)N)C(=O)N[C@H](C(=O)N[C@@H](CCC(=O)O)C(=O)N[C@@H](Cc1ccc(O)cc1)C(=O)N[C@@H](CCC(N)=O)C(=O)N[C@@H](CCCNC(=N)N)C(=O)N[C@@H](CCSC)C(N)=O)C(C)C)[C@@H](C)O)[C@@H](C)O [HC781-810] (H-EMRDDKLAQLITRTQARCRGFLARVEYQRM-NH2)
[3]
  IC50: 64 µM
  inhibition of myosin-supported prothrombin activation at 5 μM: inhibitory, to varying degrees
  inhibition of myosin-supported prothrombin activation at 100 μM: inhibited
[4]; PC/PS vesicles 4 μM, read-out: IC50, phospholipid vesicles containing 20% phosphatidylserine-supported prothrombin activation
  IC50: 7.5 µM

## QEEIKNMWAAFPPDVGGNVDYKNICYVITH [RLC133-162]
[3]
  IC50: 26 µM
  inhibition of myosin-supported prothrombin activation at 5 μM: inhibitory, to varying degrees
  inhibition of myosin-supported prothrombin activation at 100 μM: inhibited
[4]; compared with effects on myosin-supported prothrombin activation
  inhibitory effects on phospholipid-supported prothrombin activation: not apparent

## RVFDKEGNGTVMGAELRHVL [ELC138-157]
[3]
  inhibition of myosin-supported prothrombin activation: inhibited
[5]
  inhibition of prothrombin activation in the absence of myosin: inhibited

## YEDFVEGLRVFDKEGN [ELC129-144, Ac-YEDFVEGLRVFDKEGN-NH2]
[3]
  inhibition of myosin-supported prothrombin activation: inhibited
[5]
  inhibition of prothrombin activation in the absence of myosin: did not
